For 22 molecules, Ki, Emax and EC50 results are on record in patent publication US7435837B2, “Dihydrobenzofuranyl alkanamine derivatives and methods for using same” (Wyeth, priority 2003, dated 2008).

Test [1] has as its target T1, human 5-hydroxytryptamine-2C (h5-HT2C) receptor (Homo sapiens, UniProt P28335).
T1 construct: expressed in transfected cells; host or cells: CHO (Chinese Hamster Ovary) cells; membranes
T1 sequence (P28335 33-458): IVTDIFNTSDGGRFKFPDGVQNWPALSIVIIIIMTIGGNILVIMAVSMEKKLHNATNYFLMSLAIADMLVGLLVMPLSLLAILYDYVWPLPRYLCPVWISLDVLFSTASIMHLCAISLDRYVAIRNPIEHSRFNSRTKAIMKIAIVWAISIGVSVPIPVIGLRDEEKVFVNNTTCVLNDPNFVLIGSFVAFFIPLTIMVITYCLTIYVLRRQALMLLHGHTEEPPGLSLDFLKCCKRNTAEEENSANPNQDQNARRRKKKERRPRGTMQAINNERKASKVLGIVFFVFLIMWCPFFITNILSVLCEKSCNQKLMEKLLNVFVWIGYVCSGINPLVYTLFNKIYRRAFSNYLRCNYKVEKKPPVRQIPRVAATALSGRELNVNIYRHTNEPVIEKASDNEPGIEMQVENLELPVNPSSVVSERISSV
As to the kind of experiment: [125I]DOI binding to membranes of CHO cells expressing the human 5-HT2C receptor. As to conditions: [125I]DOI radioligand, CHO cell membranes, room temperature 60 min; read-out: 5-HT2C Affinity Ki.

For another test, the target named is T2, human 5-HT2C receptor (Homo sapiens, UniProt P28335).
T2 sequence (P28335 33-458): T1 sequence (P28335 33-458)
Kind of test: 5-HT2C receptor-stimulated calcium mobilization (FLIPR) in CHO cells.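 As to all read-outs here: Fluo-3-AM fluorescence read on FLIPR every 1 s, agonist added after 10 baseline reads, response taken as peak minus lowest raw fluorescence count.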 The class given is cell-based. As to conditions: for Emax: CHO, percentage of the response observed with a maximally effective concentration of 5-HT, read-out: 5-HT2C Function Emax (%); for EC50: calcium mobilization, CHO cells stably expressing human 5-HT2C, read-out: 5-HT2C Function EC50.

`Cc1cc2c(c(-c3cc(Cl)ccc3Cl)c1)OC(CN)C2` (racemic) [Example 300, (±)-{[7-(2,5-dichlorophenyl)-5-methyl-2,3-dihydro-1-benzofuran-2-yl]methyl}amine]: in test [1], the Ki stood at 0.1 nM. At human 5-HT2C receptor, the Emax is 90% and the EC50 was 3 nM.

On to `Cc1cc2c(c(-c3c(C)cccc3C)c1)OC(CN)C2` (racemic) [Example 301, (±)-{[7-(2,6-dimethylphenyl)-5-methyl-2,3-dihydro-1-benzofuran-2-yl]methyl}amine], for which the Ki in test [1] was determined as 2 nM. Moreover, on human 5-HT2C receptor, the Emax was found to be 90% and the EC50 turned out to be 31 nM.

With `Cc1cc2c(c(-c3c(Cl)cccc3Cl)c1)OC(CN)C2` (racemic) [Example 302, (±)-{[7-(2,6-dichlorophenyl)-5-methyl-2,3-dihydro-1-benzofuran-2-yl]methyl}amine], in test [1], the Ki was 0.3 nM. At human 5-HT2C receptor, the Emax stood at 100% and the EC50 was found to be 2 nM.

Turning to `CCc1cc2c(c(-c3ccccc3Cl)c1)OC(CN)C2` (racemic) [Example 306, (±)-{[5-ethyl-7-(2-chlorophenyl)-2,3-dihydro-1-benzofuran-2-yl]methyl}amine], in test [1], the Ki is 0.58 nM. Besides, at human 5-HT2C receptor, the Emax came out at 100% and the EC50 came to 0.64 nM.

With `Cc1ccccc1-c1cc(C(C)C)cc2c1OC(CN)C2` (racemic) [Example 307, (±)-{[5-isopropyl-7-(2-methylphenyl)-2,3-dihydro-1-benzofuran-2-yl]methyl}amine], in test [1], the Ki came out at 1 nM. On human 5-HT2C receptor, the Emax turned out to be 90% and the EC50 was 49 nM.

With `CC(C)c1cc2c(c(-c3ccccc3Cl)c1)OC(CN)C2` (racemic) [Example 308, (±)-{[5-isopropyl-7-(2-chlorophenyl)-2,3-dihydro-1-benzofuran-2-yl]methyl}amine], in test [1], the Ki was 0.9 nM. For the same molecule, at human 5-HT2C receptor, the Emax amounted to 90% and the EC50 is 24 nM.

Turning to `Cc1ccccc1-c1cc(C2CCCC2)cc2c1OC(CN)C2` (racemic) [Example 309, (±)-{[5-cyclopentyl-7-(2-methylphenyl)-2,3-dihydro-1-benzofuran-2-yl]methyl}amine], the Ki in test [1] came to 8 nM. On human 5-HT2C receptor, the Emax was found to be 90% and the EC50 came out at 107 nM.

With `NCC1Cc2cc(C3CCCC3)cc(-c3ccccc3Cl)c2O1` (racemic) [Example 310, (±)-{[5-cyclopentyl-7-(2-chlorophenyl)-2,3-dihydro-1-benzofuran-2-yl]methyl}amine], the Ki in test [1] came out at 13 nM. Also, on human 5-HT2C receptor, the Emax amounted to 90% and the EC50 turned out to be 137 nM.

For the molecule `Cc1ccccc1-c1cc(C#N)cc2c1OC(CN)C2` (racemic) [Example 311, (±)-2-(aminomethyl)-7-(2-methylphenyl)-2,3-dihydro-1-benzofuran-5-carbonitrile], in test [1], the Ki worked out at 25 nM. In addition, on human 5-HT2C receptor, the Emax worked out at 90% and the EC50 was 63 nM.

Regarding `N#Cc1cc2c(c(-c3ccccc3Cl)c1)OC(CN)C2` (racemic) [Example 312, (±)-2-(aminomethyl)-7-(2-chlorophenyl)-2,3-dihydro-1-benzofuran-5-carbonitrile], the Ki in test [1] worked out at 15 nM. Moreover, at human 5-HT2C receptor, the Emax is 90% and the EC50 was 25 nM.

Turning to `NCC1Cc2cc(C(F)(F)F)cc(-c3ccccc3F)c2O1` (racemic) [Example 313, (±)-{[5-(trifluoromethyl)-7-(2-fluorophenyl)-2,3-dihydro-1-benzofuran-2-yl]methyl}amine], the Ki in test [1] is 164 nM. Further, on human 5-HT2C receptor, the Emax is 90% and the EC50 stood at 70 nM.

Regarding `Cc1ccccc1-c1cc(C(F)(F)F)cc2c1OC(CN)C2` (racemic) [Example 314, (±)-{[5-(trifluoromethyl)-7-(2-methylphenyl)-2,3-dihydro-1-benzofuran-2-yl]methyl}amine], the Ki in test [1] amounted to 18 nM. Further, on human 5-HT2C receptor, the Emax amounted to 90% and the EC50 worked out at 42 nM.

Consider `NCC1Cc2cc(C(F)(F)F)cc(-c3ccccc3Cl)c2O1` (racemic) [Example 315, (±)-{[5-(trifluoromethyl)-7-(2-chlorophenyl)-2,3-dihydro-1-benzofuran-2-yl]methyl}amine], for which the Ki in test [1] was found to be 25 nM. Moreover, at human 5-HT2C receptor, the Emax was determined as 90% and the EC50 stood at 19 nM.

In the case of `COc1ccc(-c2cc(C(F)(F)F)cc3c2OC(CN)C3)cc1` (racemic) [Example 326, (±)-{[5-(trifluoromethyl)-7-(4-methoxyphenyl)-2,3-dihydro-1-benzofuran-2-yl]methyl}amine], the Ki in test [1] came out at 34 nM. Moreover, at human 5-HT2C receptor, the maximal response (Emax) is 80% and the EC50 was determined as 228 nM.

For `COc1cccc(-c2cc(C(F)(F)F)cc3c2OC(CN)C3)c1OC` (racemic) [Example 331, (±)-{[7-(2,3-dimethoxyphenyl)-5-(trifluoromethyl)-2,3-dihydro-1-benzofuran-2-yl]methyl}amine], the Ki in test [1] is 38 nM. Further, on human 5-HT2C receptor, the Emax amounted to 80% and the EC50 was found to be 271 nM.

Regarding `NCC1Cc2cc(C(F)(F)F)cc(-c3ccc(F)cc3F)c2O1` (racemic) [Example 332, (±)-{[7-(2,4-difluorophenyl)-5-(trifluoromethyl)-2,3-dihydro-1-benzofuran-2-yl]methyl}amine], the Ki in test [1] was 37 nM. At human 5-HT2C receptor, the Emax stood at 80% and the EC50 came to 111 nM.

`COc1ccc(-c2cc(C(F)(F)F)cc3c2OC(CN)C3)c(OC)c1` (racemic) [Example 333, (±)-{[7-(2,4-dimethoxyphenyl)-5-(trifluoromethyl)-2,3-dihydro-1-benzofuran-2-yl]methyl}amine]: the Ki in test [1] was determined as 13 nM. Moreover, at human 5-HT2C receptor, the Emax turned out to be 90% and the EC50 was 70 nM.

For `NCC1Cc2cc(C(F)(F)F)cc(-c3cc(F)ccc3F)c2O1` (racemic) [Example 336, (±)-{[7-(2,5-difluorophenyl)-5-(trifluoromethyl)-2,3-dihydro-1-benzofuran-2-yl]methyl}amine], the Ki in test [1] came out at 45 nM. Further, on human 5-HT2C receptor, the Emax is 90% and the EC50 was 123 nM.

Turning to `NCC1Cc2cc(C(F)(F)F)cc(-c3cc(Cl)ccc3Cl)c2O1` (racemic) [Example 337, (±)-{[7-(2,5-dichlorophenyl)-5-(trifluoromethyl)-2,3-dihydro-1-benzofuran-2-yl]methyl}amine], the Ki in test [1] stood at 34 nM. For the same molecule, on human 5-HT2C receptor, the Emax amounted to 90% and the half-maximal effective concentration (EC50) was 48 nM.

`Cc1cccc(C)c1-c1cc(C(F)(F)F)cc2c1OC(CN)C2` (racemic) [Example 338, (±)-{[7-(2,6-dimethylphenyl)-5-(trifluoromethyl)-2,3-dihydro-1-benzofuran-2-yl]methyl}amine]: in test [1], the Ki came out at 14 nM. Also, on human 5-HT2C receptor, the Emax turned out to be 90% and the EC50 was found to be 44 nM.

As to `NCC1Cc2cc(C(F)(F)F)cc(-c3ccoc3)c2O1` (racemic) [Example 341, (±)-{[7-(3-furyl)-5-(trifluoromethyl)-2,3-dihydro-1-benzofuran-2-yl]methyl}amine], in test [1], the Ki stood at 36 nM. On human 5-HT2C receptor, the Emax was determined as 90% and the 50% effective concentration (EC50) is 231 nM.

Turning to `NCC1Cc2cc(C(F)(F)F)cc(-c3ccsc3)c2O1` (racemic) [Example 342, (±)-{[7-thien-3-yl-5-(trifluoromethyl)-2,3-dihydro-1-benzofuran-2-yl]methyl}amine], the Ki in test [1] was determined as 28 nM. On human 5-HT2C receptor, the maximal effect (Emax) is 80% and the EC50 turned out to be 590 nM.
